From patent US20080306166A1, “Compositions and Methods For Treatment of Disorders of Protein Aggregation” (priority 2004, published 2008)
Marks after values point to notes of the source that are not given here.

Columns and labels:
TgCRND8 mice [1] = test: Cerebral amyloid plaque burden (anti-Aβ immunostaining, image analysis); type: in vivo, mouse; details: TgCRND8 mice
Experimental: Mice. […] This initial dosage was chosen based upon the dosage of myo-cyclohexanehexyl (6-18 grams/day/adult or 86-257 mg/Kg/day) that is typically administered to human patients for various psychiatric disorders. […] A cohort of animals (n=10 mice per treatment arm) entered the study at five months of age, and outcomes were then analyzed after one month of treatment. The body weight, coat characteristics and in cage behaviour were monitored. Mannitol was used as a negative control for potential alterations in caloric intake. All experiments were performed according to the Canadian Council on Animal Care guidelines. Behavioural tests: Morris Water Maze testing was performed as previously described. After non-spatial pre-training, mice underwent place discrimination training for 5 days with 4-trials per day, followed by a cued visible platform to rule out general motivational, learning deficits and motor problems, and a probe trial to evaluate memory. […] Open field test for motor activity was preformed as described previously. Duration of walking, pausing and grooming were analyzed as indices of spontaneous locomotor activity. Sensorimotor function was examined with an Economex™ accelerating rotarod (Columbus Instruments, Columbus, Ohio), as described elsewhere. The rod was set to accelerate at a rate of 0.2 r.p.m./s, from an initial, constant speed of 5 r.p.m. Latency to fall was recorded in four daily trials, conducted at 30 min intervals. All mice were trained for seven days before testing. The test day performance score for each animal was obtained by summing its latency to fall over the four trials. Cerebral amyloid burden. Brains were removed and one hemisphere was fixed in 4% paraformaldehyde and embedded in paraffin wax in the mid sagittal plane. To generate sets of systematic uniform random sections, 5 μm serial sections were collected across the entire hemisphere. Sets of sections at 50 μm intervals were used for analyses (10-14 sections/set). Plaques were identified after antigen retrieval with formic acid, and incubation with primary anti-AD antibody (Dako M-0872), followed by secondary antibody (Dako StreptABCcomplex/horseradish kit). End products were visualized with DAB and were counter-stained with luxol fast blue. Amyloid plaque burden was assessed with Leco IA-3001 image analysis software interfaced with Leica microscope and Hitachi KP-M1U CCD video camera. Openlab imaging software (Improvision, Lexington, Mass.) was then used to convert micrographs to binary images for plaque number and plaque area determinations. Vascular amyloid burden was defined as amyloid originating from or surrounding blood vessels and was analysed similarly. Plasma and Cerebral Aβ Content. Hemi-brain samples were homogenized in a buffered sucrose solution, followed by either 0.4% diethylamine/100 mM NaCl for soluble Aβ levels or cold formic acid for the isolation of total Aβ. After neutralization, the samples were diluted and analyzed for Aβ40 and Aβ42 using commercially available kits (BIOSOURCE International). Each hemisphere was analyzed intriplicate and the mean values ±SEM reported. Western blot analyses were performed on all fractions using urea gels for Aβ species analyses. Aβ was detected using 6E10 (BIOSOURCE International) and Enhanced Chemiluminenscence (Amersham). Gliosis Quantitation. Five randomly selected, evenly spaced, sagittal sections were collected from paraformaldehyde-fixed and frozen hemispheres of treated and control mice. Sections were immunolabelled for astrocytes with anti-rat GFAP IgG2a, (Dako; diluted 1:50) and for microglia with anti-rat CD68 IgG2b (Dako; 1:50).

TgCRND8 mice [2] = details: mouse, in vivo
Experimental: Mice. […] This initial dosage was chosen based upon the dosage of myo-cyclohexanehexyl (6-18 grams/day/adult or 86-257 mg/Kg/day) that is typically administered to human patients for various psychiatric disorders. […] A cohort of animals (n=10 mice per treatment arm) entered the study at five months of age, and outcomes were then analyzed after one month of treatment. The body weight, coat characteristics and in cage behaviour were monitored. Mannitol was used as a negative control for potential alterations in caloric intake. All experiments were performed according to the Canadian Council on Animal Care guidelines. Behavioural tests: Morris Water Maze testing was performed as previously described. […] Duration of walking, pausing and grooming were analyzed as indices of spontaneous locomotor activity. […] Latency to fall was recorded in four daily trials, conducted at 30 min intervals. […] Amyloid plaque burden was assessed with Leco IA-3001 image analysis software interfaced with Leica microscope and Hitachi KP-M1U CCD video camera. […] Vascular amyloid burden was defined as amyloid originating from or surrounding blood vessels and was analysed similarly. […] After neutralization, the samples were diluted and analyzed for Aβ40 and Aβ42 using commercially available kits (BIOSOURCE International). Each hemisphere was analyzed intriplicate and the mean values ±SEM reported. […] Gliosis Quantitation. […]

Aβ oligomers = test: IP/Western blot of Aβ oligomers in 7PA2 conditioned medium; type: cell-based, human
Experimental: (§1) Preparation of conditioned media: CHO— or 7PA2 cells were grown to ˜90% confluency. The cells were washed 1× in serum-free DMEM, then incubated overnight (˜15 hrs) in 4 ml/10 cm dish in serum-free DMEM, pen/strep, 1-glutamine with/without AZD-103. The following day, the conditioned media (CM) was collected, spun at 1000×g and treated with complete protease inhibitors (in mg/ml 1 leupeptin, 1 pepstatin, 0.1 aprotinin, 40 EDTA, and 2 mM 1/10 phenantroline) for biochemistry experiments or cell culture compatible protease inhibitors (Sigma P1860 1:1000) for electrophysiology experiments. The CM was stored at −80° C. until sufficient volumes were collected to complete a “batch”—typically ˜300 ml. […] The resulting concentrate was pooled, aliquoted in 1 ml fractions, and stored at −80° C. […] Therefore, for any given set of experiments (i.e. dose response curve, time curve, etc), a single batch is prepared and compared to 7PA2 alone within that batch.
IP/Western blots: 8 ml of 7PA2 CM were precleared with 40 μl of protein A agarose for 30 min. The beads were spun down, and […] of the polyclonal anti-Aβ antibody R1282 was added to the supernatant with an additional 40 μl of protein A agarose. These samples were nutated at 4° C. overnight. The beads were washed with a series of buffers 0.5 STEN (sodium chloride, tris, EDTA, NP-40), SDS STEN, STEN. 2× tricine sample buffer was added to the washed beads, which were then boiled, centrifuged, and the resulting supernatant loaded onto 10-20% tricine gels. The proteins were then transferred to nitrocellulose, and probed with the anti-Aβ antibody 6E10.

7PA2 cells = test: Toxicity observations in 7PA2 cells and LTP controls; type: cell-based, Chinese Hamster; details: APPs expression, LTP in CHO-/AZD-103 conditions
Experimental: as §1

[3] = 28 day course at 5 months of age, vs untreated
[4] = oral, 28 days from 5 months of age, 6 months of age, listed as Scyllo-cyclohexanehexol

Structure (SMILES): OC1C(O)C(O)C(O)C(O)C1O (stereo not shown) [scyllo-cyclohexanehexyl, 1,3,5/2,4,6-(scyllo-) cyclohexanehexyl]
- percent area of the brain covered by plaques, reduction (TgCRND8 mice [1]; [3]): 14±0.5%
- plaque number reduction (TgCRND8 mice [1]; [3]): 13±0.3%
- plaque size reduction (TgCRND8 mice [1]; [3]): 16±0.4%
- plaque burden in the hippocampus (TgCRND8 mice [1]; one month of treatment, anti-Aβ antibody staining): lower plaque burden
- Mean Plaque Size (TgCRND8 mice [1]; [4]): 336 ± 6* μm^2
- Total Plaque Area (TgCRND8 mice [1]; [4]): 420027 ± 14986* μm^2
- Total Plaque Count (TgCRND8 mice [1]; [4]): 1260 ± 27
- grooming or activity in the open field test (TgCRND8 mice [2]): no effect on grooming or activity
- sensorimotor function, Rotarod (TgCRND8 mice [2]): no difference
- Aβ dimer on Western blots (Aβ oligomers; applied to 7PA2 CM (post-cond)): seemed unaffected
- Aβ trimer on Western blots (Aβ oligomers; applied to 7PA2 CM (post-cond), 1.25 μM): reduced the detectability of the Aβ trimer
- Aβ dimer and trimer levels, dose response by Western blot (Aβ oligomers; pre-cond and post-cond, measured absolutely and normalized to monomer): appeared to reduce dimer and trimer levels
- toxicity (7PA2 cells): No direct evidence of AZD-103 toxicity
